From ChEMBL document CHEMBL3588836, “Development of Quinoline-2,4(1H,3H)-diones as Potent and Selective Ligands of the Cannabinoid Type 2 Receptor” (J Med Chem, 2015)
Calls of active or inactive are those of the source. The calls are words filed in the database; no cut-off is given here.

What was measured:
Mus musculus [1] = test: (§1) Reduction in leukocyte infiltration in spinal cord of C57BL/6 mouse experimental autoimmune encephalomyelitis model of multiple sclerosis at 10 mg/kg, po administered once daily starting from day 3 after immunization until end of experiment and measured on day 21 after immunization by hematoxylin and eosin staining; assay type: functional, organism-based
CHO [2] = test: Selectivity index, ratio of EC50 for CB1R (unknown origin) CHO cells stably expressing Galpha16 to EC50 for CB2R (unknown origin) CHO cells stably expressing Galpha16; assay type: cell-based; conditions: Homo sapiens
Cannabinoid receptor 2 [3] = biological target: T1, Cannabinoid receptor 2 (Homo sapiens, UniProt P34972); test: Agonist activity at CB2R (unknown origin) CHO cells stably expressing Galpha16 assessed as increase in intracellular calcium level by microplate reader based assay; assay type: functional, cell-based; conditions: read-out: EC50
Mus musculus [4] = test: as §1, with “extensive demyelination” for “leukocyte infiltration”, “white matter” for “spinal cord”, “Luxol fast blue” for “hematoxylin and eosin”; assay type: functional, organism-based
Mus musculus [5] = test: Reduction in experimental autoimmune encephalomyelitis clinical scores in C57BL/6 mouse experimental autoimmune encephalomyelitis model of multiple sclerosis at 10 mg/kg, po administered once daily starting from day 3 after immunization until end of experiment and measured on day 21 after immunization; assay type: functional, organism-based
Cannabinoid receptor 1 [6] = biological target: T2, Cannabinoid receptor 1 (Homo sapiens, UniProt P21554); test: Agonist activity at CB1R (unknown origin) CHO cells stably expressing Galpha16 assessed as increase in intracellular calcium level by microplate reader based assay; assay type: functional, cell-based
Cannabinoid receptor 2 [7] = biological target: T1, Cannabinoid receptor 2; test: Agonist activity at CB2R (unknown origin) CHO cells stably expressing Galpha16 assessed as increase in intracellular calcium level by microplate reader based assay relative to CP55940; assay type: functional, cell-based
Cannabinoid receptor 2 [8] = biological target: T1, Cannabinoid receptor 2; test: Antagonist activity against CB2R (unknown origin) CHO cells stably expressing Galpha16 assessed as inhibition of CP55940-induced increase in intracellular calcium level pre-treated 10 mins before CP55940 stimulation by microplate reader based assay relative to […]; assay type: functional, cell-based
Cannabinoid receptor 1 [9] = biological target: T2, Cannabinoid receptor 1; assay type: functional, cell-based, CHO
CHO [10] = test: Selectivity index, ratio of IC50 for CB1R (unknown origin) CHO cells stably expressing Galpha16 to IC50 for CB2R (unknown origin) CHO cells stably expressing Galpha16; assay type: cell-based; conditions: Homo sapiens
Cannabinoid receptor 2 [11] = biological target: T1, Cannabinoid receptor 2; test: Antagonist activity against CB2R (unknown origin) CHO cells stably expressing Galpha16 assessed as inhibition of CP55940-induced increase in intracellular calcium level pre-treated 10 mins before CP55940 stimulation by microplate reader based assay; assay type: functional, cell-based

T1 sequence (P34972 whole entry): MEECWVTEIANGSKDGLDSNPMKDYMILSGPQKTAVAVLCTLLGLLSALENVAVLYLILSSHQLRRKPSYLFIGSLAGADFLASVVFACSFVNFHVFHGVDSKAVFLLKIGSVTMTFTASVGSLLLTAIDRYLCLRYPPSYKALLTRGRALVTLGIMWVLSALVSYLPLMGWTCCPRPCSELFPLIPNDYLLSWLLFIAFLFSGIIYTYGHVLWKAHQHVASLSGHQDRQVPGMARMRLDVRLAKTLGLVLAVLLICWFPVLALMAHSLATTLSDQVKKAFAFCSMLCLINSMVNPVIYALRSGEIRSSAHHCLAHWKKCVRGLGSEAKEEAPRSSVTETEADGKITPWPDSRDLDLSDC
T2 sequence (P21554 whole entry): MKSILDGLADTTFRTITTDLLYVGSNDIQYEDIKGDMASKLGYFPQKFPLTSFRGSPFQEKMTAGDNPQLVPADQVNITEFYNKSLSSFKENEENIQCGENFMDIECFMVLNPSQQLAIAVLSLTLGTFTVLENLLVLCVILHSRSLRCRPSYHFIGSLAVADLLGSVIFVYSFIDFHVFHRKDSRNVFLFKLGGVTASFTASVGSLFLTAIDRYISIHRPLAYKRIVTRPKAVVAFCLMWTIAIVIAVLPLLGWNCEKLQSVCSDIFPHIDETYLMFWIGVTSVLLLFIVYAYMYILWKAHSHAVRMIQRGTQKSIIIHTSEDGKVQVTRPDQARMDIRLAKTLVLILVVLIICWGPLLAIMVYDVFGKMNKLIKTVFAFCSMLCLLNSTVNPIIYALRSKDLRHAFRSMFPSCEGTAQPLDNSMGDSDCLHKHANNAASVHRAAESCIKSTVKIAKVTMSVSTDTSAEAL

SMILES	inhibition (Mus musculus [1])	Ratio EC50 (CHO [2])	EC50 (Cannabinoid receptor 2 [3])	inhibition (Mus musculus [4])	inhibition (Mus musculus [5])	EC50 (Cannabinoid receptor 1 [6])	Emax (Cannabinoid receptor 2 [7])	Emax (Cannabinoid receptor 2 [8])	IC50 (Cannabinoid receptor 1 [9])	Ratio IC50 (CHO [10])	IC50 (Cannabinoid receptor 2 [11])
CCCCN1C(=O)/C(=C/NC2CCCCC2)C(=O)c2cccc(C)c21	Active	> 108	92.7 nM	Active	Dose-dependent effect	> 10000 nM	116%	–	–	–	–
CCCCCN1C(=O)/C(=C/NC23CC4CC(CC(C4)C2)C3)C(=O)c2cc(OC)ccc21	–	–	–	–	–	–	–	106%	> 10000 nM	> 122	81.7 nM
